The structures appear in SMILES notation. Values joined by “and” are separate entries in the source; they are usually repeats but may differ in a detail not shown here. Identical values can stand only once. Inconclusive results and toxic doses are left out.

For 19 compounds, T/C results are on record in PubChem BioAssay AID328 (DTP/NCI, 2004).

The subject of this test is BDF1 mice, P388 leukemia ip, median survival T/C. Kind of test: NCI In Vivo Anticancer Drug Screen. Data for tumor model P388 Leukemia (intraperitoneal) in B6D2F1 (BDF1) mice. The settings on record: endpoint: median survival time, higher = longer survival. The method in brief: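 Transplantable tumour in mice; compound vs vehicle dosing; survival scored; ratio of treated to control reported.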

The mark [1] stands for this setting: dose: 12.5 mg/kg/injection, schedule: Q01DX009 (ip), vehicle: saline.
Where [2] appears, read: dose: 25.0 mg/kg/injection, schedule: Q01DX009 (ip), vehicle: saline.
Where [3] appears, read: dose: 50.0 mg/kg/injection, schedule: Q01DX009 (ip), vehicle: saline.
Where [4] appears, read: dose: 50.0 mg/kg/injection, schedule: Q04DX003 (ip), vehicle: saline.
Where [5] appears, read: dose: 100.0 mg/kg/injection, schedule: Q01DX009 (ip), vehicle: saline.
The mark [6] stands for this setting: dose: 100.0 mg/kg/injection, schedule: Q04DX003 (ip), vehicle: saline.
Where [7] appears, read: dose: 200.0 mg/kg/injection, schedule: Q01DX009 (ip), vehicle: saline.
[8] abbreviates: dose: 200.0 mg/kg/injection, schedule: Q04DX003 (ip), vehicle: saline.
The mark [9] stands for this setting: dose: 400.0 mg/kg/injection, schedule: Q01DX009 (ip), vehicle: saline.
Where [10] appears, read: dose: 400.0 mg/kg/injection, schedule: Q04DX003 (ip), vehicle: saline.
[11] abbreviates: dose: 50.0 mg/kg/injection, schedule: Q01DX009 (ip), vehicle: saline with Tween-80.
The mark [12] stands for this setting: dose: 100.0 mg/kg/injection, schedule: Q01DX009 (ip), vehicle: saline with Tween-80.
Setting [13] is: dose: 200.0 mg/kg/injection, schedule: Q01DX009 (ip), vehicle: saline with Tween-80.
[14] abbreviates: dose: 6.25 mg/kg/injection, schedule: Q01DX009 (ip), vehicle: saline.
[15] abbreviates: dose: 50.0 mg/kg/injection, schedule: Q01DX009 (ip), vehicle: Klucel (hydroxypropylcellulose) (HPC).
[16] abbreviates: dose: 100.0 mg/kg/injection, schedule: Q01DX009 (ip), vehicle: Klucel (hydroxypropylcellulose) (HPC).
[17] abbreviates: dose: 12.5 mg/kg/injection, schedule: Q01DX009 (ip), vehicle: Klucel (hydroxypropylcellulose) (HPC).

For `CCCCOP(=O)(O)CCCC.[Al]`, the T/C (dose: 12.5 mg/kg/injection, schedule: Q04DX003 (ip), vehicle: saline with Tween-80) is 97 % of control; the T/C (dose: 25.0 mg/kg/injection, schedule: Q04DX003 (ip), vehicle: saline with Tween-80) is 97 % of control; the T/C (dose: 50.0 mg/kg/injection, schedule: Q04DX003 (ip), vehicle: saline with Tween-80) was 91 % of control.
In the case of `Nc1ccc(C(=O)O)c([N+](=O)[O-])c1`, the T/C was 92 % of control under setting [1]; 100 % of control under setting [2]; 105 % of control and 118 % of control under setting [3]; 99 % of control under setting [4]; 94 % of control and 98 % of control under setting [5]; 100 % of control under setting [6]. Besides, the T/C by setting is: under setting [7], 107 % of control; under setting [8], 112 % of control; under setting [9], 100 % of control; under setting [10], 103 % of control.
Regarding `COC(OC)c1ccccc1`, the T/C under setting [11] is 99 % of control, the T/C under setting [12] is 115 % of control and the T/C under setting [13] is 108 % of control.
Consider `C/C=C/CCCCCCCC`, for which the T/C is 104 % of control (dose: 100.0 mg/kg/injection, schedule: Q01DX001 (ip), vehicle: saline with Tween-80); 104 % of control (dose: 200.0 mg/kg/injection, schedule: Q01DX001 (ip), vehicle: saline with Tween-80); 119 % of control (dose: 400.0 mg/kg/injection, schedule: Q01DX001 (ip), vehicle: saline with Tween-80).
As for `O=NN(CCCl)C(=O)NC1CCC(NC(=O)N(CCCl)N=O)CC1` (stereo unspecified), the T/C by setting is: (dose: 11.0 mg/kg/injection, schedule: Q04DX003 (ip), vehicle: saline with Tween-80) 229 % of control; (dose: 13.0 mg/kg/injection, schedule: Q01DX009 (ip), vehicle: saline with Tween-80) 187 % of control; (dose: 20.0 mg/kg/injection, schedule: Q01DX009 (ip), vehicle: saline with Tween-80) 250 % of control and 272 % of control; (dose: 22.0 mg/kg/injection, schedule: Q04DX003 (ip), vehicle: saline with Tween-80) 209 % of control and 220 % of control; (dose: 30.0 mg/kg/injection, schedule: Q01DX009 (ip), vehicle: saline with Tween-80) 272 % of control; (dose: 44.0 mg/kg/injection, schedule: Q01DX009 (ip), vehicle: saline with Tween-80) 272 % of control. Also, the T/C reads like this: (dose: 44.0 mg/kg/injection, schedule: Q04DX003 (ip), vehicle: saline with Tween-80) 272 % of control; (dose: 66.0 mg/kg/injection, schedule: Q01DX009 (ip), vehicle: saline with Tween-80) 240 % of control and 272 % of control; (dose: 88.0 mg/kg/injection, schedule: Q04DX003 (ip), vehicle: saline with Tween-80) 272 % of control and 300 % of control; under setting [12], 224 % of control and 192 % of control; (dose: 133.0 mg/kg/injection, schedule: Q04DX003 (ip), vehicle: saline with Tween-80) 300 % of control; (dose: 150.0 mg/kg/injection, schedule: Q01DX009 (ip), vehicle: saline with Tween-80) 176 % of control. For the same compound, the T/C reads like this: under setting [13], 115 % of control; (dose: 200.0 mg/kg/injection, schedule: Q04DX003 (ip), vehicle: saline with Tween-80) 300 % of control; (dose: 300.0 mg/kg/injection, schedule: Q04DX003 (ip), vehicle: saline with Tween-80) 210 % of control.
As for `N=C(N)SCc1ccc(CSC(=N)N)s1`, the T/C was 97 % of control under setting [14], 106 % of control under setting [1] and 106 % of control under setting [2].
Consider `O=C(/C=C/c1cccc(O)c1)c1ccccc1`, for which the T/C was 91 % of control under setting [11], 99 % of control under setting [12] and 101 % of control under setting [13].
With `O=CCSC(=S)NNc1ccccc1`, the T/C by setting is: (dose: 75.0 mg/kg/injection, schedule: Q01DX001 (ip), vehicle: Klucel (hydroxypropylcellulose) (HPC)) 110 % of control; (dose: 150.0 mg/kg/injection, schedule: Q01DX001 (ip), vehicle: Klucel (hydroxypropylcellulose) (HPC)) 105 % of control; (dose: 300.0 mg/kg/injection, schedule: Q01DX001 (ip), vehicle: Klucel (hydroxypropylcellulose) (HPC)) 95 % of control.
For `CCCCCCCOc1cccc(OCCCC[N+]2(CC)CCCCC2)c1`, the T/C under setting [14] is 110 % of control.
In the case of `COC(=O)C(NC=O)C(=O)OC`, the T/C is 100 % of control under setting [5]; 100 % of control under setting [6]; 114 % of control under setting [7]; 90 % of control under setting [8]; 100 % of control under setting [9]; 90 % of control under setting [10].
In the case of `CCCCCCCCC(=O)N1CC1`, the T/C is 95 % of control under setting [15]; 118 % of control under setting [16]; 109 % of control (dose: 100.0 mg/kg/injection, schedule: Q04DX003 (ip), vehicle: Klucel (hydroxypropylcellulose) (HPC)); 86 % of control (dose: 200.0 mg/kg/injection, schedule: Q01DX009 (ip), vehicle: Klucel (hydroxypropylcellulose) (HPC)); 113 % of control (dose: 200.0 mg/kg/injection, schedule: Q04DX003 (ip), vehicle: Klucel (hydroxypropylcellulose) (HPC)).
Turning to `Nc1ncnc2c(C3OC(CO)C(O)C3O)[nH]nc12` (stereo unspecified), the T/C runs as follows: (dose: 1.5 mg/kg/injection, schedule: Q01DX009 (ip), vehicle: saline) 100 % of control; (dose: 2.3 mg/kg/injection, schedule: Q01DX009 (ip), vehicle: saline) 109 % of control; (dose: 8.0 mg/kg/injection, schedule: Q01DX009 (ip), vehicle: saline) 113 % of control; under setting [1], 159 % of control; (dose: 33.0 mg/kg/injection, schedule: Q04DX003 (ip), vehicle: saline) 104 % of control; under setting [4], 114 % of control. In addition, the T/C (dose: 75.0 mg/kg/injection, schedule: Q04DX003 (ip), vehicle: saline) is 95 % of control and the T/C (dose: 100.0 mg/kg/injection, schedule: Q04DX003 (ip), vehicle: saline sonified) was 118 % of control.
Consider `Brc1cc(Br)c(I)c(Br)c1`, for which the T/C by setting is: (dose: 100.0 mg/kg/injection, schedule: Q01DX009 (ip), vehicle: other) 105 % of control; (dose: 200.0 mg/kg/injection, schedule: Q01DX009 (ip), vehicle: other) 100 % of control; (dose: 400.0 mg/kg/injection, schedule: Q01DX009 (ip), vehicle: other) 90 % of control.
Take `Cc1ccc(S(=O)(=O)N/N=C/C(Br)=C(/Br)C(=O)O)cc1`: the T/C (dose: 6.25 mg/kg/injection, schedule: Q01DX009 (ip), vehicle: Klucel (hydroxypropylcellulose) (HPC)) was 119 % of control; the T/C under setting [17] is 124 % of control; the T/C under setting [15] is 155 % of control; the T/C under setting [16] was 153 % of control.
Turning to `N=C(N)c1ccc(/C=C/c2ccc(C(=N)N)cc2)cc1`, the T/C is 118 % of control under setting [17]; 116 % of control and 118 % of control (dose: 16.5 mg/kg/injection, schedule: Q01DX009 (ip), vehicle: Klucel (hydroxypropylcellulose) (HPC)); 150 % of control (dose: 37.5 mg/kg/injection, schedule: Q01DX009 (ip), vehicle: Klucel (hydroxypropylcellulose) (HPC)).
For `O=C1C=C(Cl)C(=O)C2=C1CCCC2`, the T/C is, setting by setting: (dose: 0.39 mg/kg/injection, schedule: Q04DX002 (ip), vehicle: saline) 92 % of control; (dose: 0.78 mg/kg/injection, schedule: Q04DX002 (ip), vehicle: saline) 97 % of control; (dose: 1.56 mg/kg/injection, schedule: Q04DX002 (ip), vehicle: saline with Tween-80) 96 % of control; (dose: 1.56 mg/kg/injection, schedule: Q04DX002 (ip), vehicle: saline) 101 % of control.
On to `O=c1cc(O)[nH]c(=S)[nH]1`, for which the T/C is 103 % of control under setting [11], 99 % of control under setting [12] and 88 % of control under setting [13].
Take `COc1cc2ccc(CCN)cc2cc1OC`: the T/C was 95 % of control (dose: 12.5 mg/kg/injection, schedule: Q01DX009 (ip), vehicle: saline with Tween-80); 108 % of control (dose: 25.0 mg/kg/injection, schedule: Q01DX009 (ip), vehicle: saline with Tween-80); 87 % of control under setting [11].
For the compound `Cc1ccc(S(=O)(=O)NCCCCCC(=O)OCc2ccccc2)cc1`, the T/C reads like this: under setting [3], 99 % of control; under setting [5], 108 % of control; under setting [7], 100 % of control.
